We go through two substances from US10774281B2, “Use of a particular carboxylic amino acid in order to limit the formation and/or agglomeration of gas hydrates” (Arkema France, priority 2015, dated 2020).

Data set [1] can be described thus: Biodegradability in marine medium, OCDE test 306. As to conditions: in words. As to the method: (§1) According to OCDE test 306 (marine medium), the composition of the invention (B1), comprising a compound of formula (I), has a biodegradability of 70%, i.e. greater than 60%. […] Its Log Pow measured according to OCDE 117 by HPLC is 2.93<3. Its Algal ecotoxicity is 2 mg·L^−1.

Data set [2] is described as follows: Bioaccumulation, Log Pow according to OCDE 117 by HPLC. It is filed as physicochemical. As to the method:
as §1

Take “di-tallow-hydrogenodimethylammonium chloride [Noramium® M2SH]”: the Biodegradability classification result in data set [1] is on record as “not biodegradable”. In addition, the “Bioaccumulation, in words” value in data set [2] is listed as “bioaccumulable”.
The like results for “dicocoyldimethylammonium chloride [Noramium® M2C]” were, in that order, “not biodegradable” and “bioaccumulable”.
